As a reminder, the half-life is the time needed for the level to fall by half in the phase considered. A high value points to slow loss. What is called EC50 is the concentration giving half of the maximal effect. Low values mean a more potent agent, high ones a less potent agent. Broadly, the IC50 is the concentration that inhibits the measured activity by half. A higher IC50 goes with lower potency.

From patent publication US10266577B2, “GLP-1 derivatives, and uses thereof” (Novo Nordisk A/S, priority 2013, dated 2019) come the findings set out here.

Data set [1] can be described thus: Pharmacokinetic study in minipigs (i.v.). Particulars: male, Göttingen, minipig, in vivo, iv, 2 nmol/kg.
Method: (§1) The purpose of this study is to determine the protraction in vivo of the GLP-1 derivatives after i.v. administration to minipigs, i.e. the prolongation of their time in the body and thereby their time of action. This is done in a pharmacokinetic (PK) study, where the terminal half-life of the derivative in question is determined. By terminal half-life is meant the time it takes to halve a certain plasma concentration in the terminal elimination phase.
(§2) Male Göttingen minipigs were obtained from Ellegaard Göttingen Minipigs (Dalmose, Denmark) approximately 7-14 months of age and weighing approximately 16-35 kg were used in the studies. The minipigs were housed either individually (pigs with permanent catheters) or in a group and fed restrictedly once or twice daily with SDS minipig diet (Special Diets Services, Essex, UK).
(§3) After at least 2 weeks of acclimatisation two permanent central venous catheters were implanted in vena cava caudalis or cranialis in each animal. The animals were allowed 1 week recovery after the surgery, and were then used for repeated pharmacokinetic studies with a suitable wash-out period between successive GLP-1 derivative dosings.
(§4) Blood samples (for example 0.8 ml) were collected in EDTA buffer (8 mM) and then centrifuged at 4° C. and 1942G for 10 minutes.
(§5) Plasma was pipetted into Micronic tubes on dry ice, and kept at −20° C. until analysed for plasma concentration of the respective GLP-1 compound using LOCI. Individual plasma concentration-time profiles were analyzed by a non-compartmental pharmacokinetic method in Phoenix v. 6.2 (Pharsight Inc., Mountain View, Calif., USA), or other relevant software for PK analysis, and the resulting terminal half-lives (harmonic mean) determined.
In data set [2] the target is T1, human GLP-1 receptor (Homo sapiens, UniProt P43220).
T1 construct: expressed in transfected cells; host or cells: BHK cells (parent line BHKTS13), clone FCW467-12A; membrane preparation
T1 sequence (P43220 24-463): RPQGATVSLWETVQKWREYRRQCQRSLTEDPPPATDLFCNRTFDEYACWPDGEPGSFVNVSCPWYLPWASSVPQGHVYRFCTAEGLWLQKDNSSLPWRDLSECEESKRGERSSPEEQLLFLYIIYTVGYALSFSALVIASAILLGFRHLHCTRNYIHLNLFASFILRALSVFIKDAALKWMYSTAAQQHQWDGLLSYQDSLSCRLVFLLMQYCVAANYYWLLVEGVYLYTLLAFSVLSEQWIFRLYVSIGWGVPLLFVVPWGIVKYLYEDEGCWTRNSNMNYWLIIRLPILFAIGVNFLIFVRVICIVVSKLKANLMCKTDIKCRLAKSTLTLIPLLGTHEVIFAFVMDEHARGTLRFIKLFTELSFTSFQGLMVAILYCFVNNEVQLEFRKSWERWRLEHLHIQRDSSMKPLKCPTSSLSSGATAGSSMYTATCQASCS
The data set is described as follows: GLP-1 receptor binding: competitive binding assay (125I-GLP-1, SPA) on isolated membranes at low and high HSA. The note with it: displacement of 125I-GLP-1. On the technique in general: In a radioligand displacement assay an active substance lowers the binding of a labelled ligand.
Method: The purpose of this example is to test the receptor binding of the GLP-1 derivatives in vitro. The receptor binding is a measure of affinity of a derivative for the human GLP-1 receptor.
In this type of assay a labelled ligand (in this case ^125I-GLP-1) is bound to the receptor. Each derivative is added in a series of concentrations to isolated membranes containing the human GLP-1 receptor and displacement of the labelled ligand is monitored. The receptor binding is reported as the concentration at which half of the labelled ligand is displaced from the receptor, the IC50 value.
The following chemicals were used in the assay: Human serum albumin (HSA) (Sigma A1653), DMEM w/o phenol red (Gibco 11880-028), Pen/strep (Invitrogen 15140-122), G418 (Invitrogen 10131-027), 1 M Hepes (Gibco 15630), EDTA (Invitrogen 15575-038), PBS (Invitrogen 14190-094), fetal calf serum (Invitrogen 16140-071), EGTA, MgCl2 (Merck 1.05832.1000), Tween 20 (Amresco 0850C335), SPA particles (wheat germ agglutinin (WGA) SPA beads, Perkin Elmer RPNQ0001), [^125I]-GLP-1]-(7-36)NH2 (produced in-house), OptiPlate™-96 (Packard 6005290).
Buffer 1 consisted of 20 mM Na-HEPES plus 10 mM EDTA and pH was adjusted to 7.4. Buffer 2 consisted of 20 mM Na-HEPES plus 0.1 mM EDTA and pH was adjusted to 7.4. Assay buffer consisted of 50 mM HEPES supplemented with 5 mM EGTA, 5 mM MgCl2, 0.005% Tween 20 and pH was adjusted to 7.4. An 8% albumin stock consisted of HSA dissolved at 8% (w/v) in assay buffer. An 0.02% albumin stock consisted of HSA dissolved at 0.02% (w/v) in assay buffer.
The cells express the human GLP-1 receptor.
The cells were grown at 5% CO2 in DMEM, 10% fetal calf serum, 1% Pen/Strep (Penicillin/Streptomycin) and 1.0 mg/ml of the selection marker G418.
To make a membrane preparation the cells were grown to approximately 80% confluence. The cells were washed twice in phosphate-buffered saline and harvested. The cells were pelleted using a brief centrifugation and the cell pellet was kept on ice. The cell pellet was homogenised with ULTRA-THURRAX™ dispersing instrument for 20-30 seconds in a suitable amount of buffer 1 (e.g., 10 ml). The homogenate was centrifuged for 15 minutes. The pellet was re-suspended (homogenised) in 10 ml buffer 2 and centrifuged. This step was repeated once more. The resulting pellet was re-suspended in buffer 2 and the protein concentration was determined. The membranes were aliquoted and stored at minus 80° C.
For the receptor binding assay in the presence of low HSA (0.005%) 50 μl of the assay buffer was added to each well of an assay plate. Assay continued with step 3.
For the receptor binding assay in the presence of high HSA (2%) 50 μl of the 8% albumin stock was added to each well of an assay plate. Assay continued with step 3.
Cell membrane aliquots were thawed and diluted to their working concentration. Fifty μl were added to each well in the assay plate.
WGA SPA beads were suspended in assay buffer at 20 mg/ml. The suspension was diluted to 10 mg/ml in assay buffer just prior to addition to the assay plate. Fifty μl were added to each well in the assay plate.
The incubation was started by adding 25 μl of 480 pM solution of [^125I]-GLP-1]-(7-36)NH2 to each well of the assay plate. A 25 μl aliquot was reserved for measuring total counts/well.
The assay plate was incubated for 2 h at 30° C.
The assay plate was centrifuged for 10 min.
The assay plate was read in a Packard TopCount NXT instrument.
The data from the TopCount instrument were transferred to GraphPad Prism software. The software averaged the values for the replicates and performed a non-linear regression. IC50 values were calculated by the software and reported in nM.

The target in data set [3] is T1, human GLP-1 receptor. The data set is described as follows: In vitro potency: CRE luciferase reporter gene assay in BHK cells expressing the human GLP-1 receptor. The note with it: whole cell reporter gene assay, BHK clone FCW467-12A/KZ10-1; averages of at least two replicates. The format is cell-based.
Method: The purpose of this example is to test the activity, or potency, of the GLP-1 derivatives in vitro. The in vitro potency is the measure of human GLP-1 receptor activation in a whole cell assay.
In vitro potency was determined by measuring the response of the human GLP-1 receptor in a reporter gene assay. The assay was performed in a stably transfected BHK cell line that expresses the human GLP-1 receptor and contains the DNA for the cAMP response element (CRE) coupled to a promoter and the gene for firefly luciferase (CRE luciferase). When the human GLP-1 receptor is activated it results in the production of cAMP, which in turn results in the luciferase protein being expressed. When assay incubation is completed the luciferase substrate (luciferin) is added and the enzyme converts luciferin to oxyluciferin to produce bioluminescence. The luminescence is measured as the readout for the assay.
The cells were cultured at 5% CO2 in Cell Culture Medium. They were aliquoted and stored in liquid nitrogen. Before each assay an aliquot is taken up and washed twice in PBS before being suspended at the desired concentration in the assay specific buffer. For 96-well plates the suspension was made to give a final concentration of 5×10^3 cells/well.
The following chemicals were used in the assay: Pluronic F-68 (10%) (Gibco 2404), human serum albumin (HSA) (Sigma A9511), ovalbumin (Sigma A5503), DMEM w/o phenol red (Gibco 11880-028), 1 M Hepes (Gibco 15630), Glutamax 100× (Gibco 35050) and steadylite plus (PerkinElmer 6016757).
Cell Culture Medium consisted of DMEM medium with 10% FBS (Fetal Bovine Serum; Invitrogen 16140-071), 1 mg/ml G418 (Invitrogen 15140-122), 240 nM MTX (methotrexate; Sigma M9929) and 1% pen/strep (penicillin/streptomycin; Invitrogen 15140-122).
Assay Medium consisted of DMEM w/o phenol red, 10 mM Hepes and 1× Glutamax. The Assay Buffer consisted of 2% ovalbumin and 0.2% Pluronic F-68 in Assay Medium.
1) Cell stocks were thawed in a 37° C. water bath.
2) Cells were washed three times in PBS.
3) The cells were counted and adjusted to 5×10^3 cells/50 μl (1×10^5 cells/ml) in Assay Medium. A 50 μl aliquot of cells was transferred to each well in the assay plate.
4) Stocks of the test compounds and reference compounds were diluted to a concentration of 0.2 pM in Assay Buffer. […] Compounds were tested at the following final concentrations: 1×10^−7 M, 1×10^−8 M; 1×10^−9 M, 1×10^−10 M, 1×10^−11 M, 1×10^−12 M, 1×10^−13 M, and 1×10^−14 M. 6) The assay plate was incubated for 3 h in a 5% CO2 incubator at 37° C. 7) The assay plate was removed from the incubator and allowed to stand at room temperature for 15 min. 8) A 100 μl aliquot of steadylite plus reagent was added to each well of the assay plate (reagent was light sensitive). 9) Each assay plate was covered with aluminum foil to protect it from light and shaken for 30 min at room temperature. 10) Each assay plate was read in a Packard TopCount NXT instrument. Calculations and Results
The data from the TopCount instrument were transferred to GraphPad Prism software. The software performs a non-linear regression (log(agonist) vs response).
A minimum of two replicates was measured for each sample. The reported values are averages of the replicates.
A short description of the next data set: in vivo. Particulars: male, Göttingen, minipig, iv.

Method for in vivo: as §1, §2, §3, §4, §5

For `CC[C@H](C)[C@H](NC(=O)[C@H](Cc1ccccc1)NC(=O)[C@H](CCC(=O)O)NC(=O)[C@H](CCCNC(=N)N)NC(=O)[C@H](C)NC(=O)[C@H](C)NC(=O)[C@H](CCC(N)=O)NC(=O)[C@H](CCCCNC(=O)COCCOCCNC(=O)COCCOCCNC(=O)CC[C@H](NC(=O)[C@H]1CC[C@H](CNC(=O)CCCCCCCCCCCCCCCS(=O)(=O)O)CC1)C(=O)O)NC(=O)[C@H](CCC(=O)O)NC(=O)[C@H](CC(C)C)NC(=O)[C@H](Cc1ccc(O)cc1)NC(=O)[C@H](CCCCNC(=O)COCCOCCNC(=O)COCCOCCNC(=O)CC[C@H](NC(=O)[C@H]1CC[C@H](CNC(=O)CCCCCCCCCCCCCCCS(=O)(=O)O)CC1)C(=O)O)NC(=O)[C@H](CO)NC(=O)[C@@H](NC(=O)[C@H](CC(=O)O)NC(=O)[C@H](CO)NC(=O)[C@@H](NC(=O)[C@H](Cc1ccccc1)NC(=O)[C@@H](NC(=O)CNC(=O)[C@H](CCC(=O)O)NC(=O)C(C)(C)NC(=O)[C@@H](N)Cc1c[nH]cn1)[C@@H](C)O)[C@@H](C)O)C(C)C)C(=O)N[C@@H](CCCCNC(=O)COCCOCCNC(=O)COCCOCCNC(=O)CC[C@H](NC(=O)[C@H]1CC[C@H](CNC(=O)CCCCCCCCCCCCCCCS(=O)(=O)O)CC1)C(=O)O)C(=O)N[C@@H](Cc1c[nH]c2ccccc12)C(=O)N[C@@H](CC(C)C)C(=O)N[C@H](C(=O)N[C@@H](CCCNC(=N)N)C(=O)NCC(=O)N[C@@H](CCCNC(=N)N)C(=O)NCC(=O)O)C(C)C` [Example 1], in data set [1], the half-life is 162 h.
On human GLP-1 receptor [2] (Low HSA IC50, low serum albumin (max. 0.001% final assay concentration)), `CC[C@H](C)[C@H](NC(=O)[C@H](Cc1ccccc1)NC(=O)[C@H](CCC(=O)O)NC(=O)[C@H](CCCNC(=N)N)NC(=O)[C@H](C)NC(=O)[C@H](C)NC(=O)[C@H](CCC(N)=O)NC(=O)[C@H](CCCCNC(=O)COCCOCCNC(=O)COCCOCCNC(=O)COCCOCCNC(=O)COCCOCCNC(=O)COCCOCCNC(=O)[C@@H](N)CCCCNC(=O)[C@@H](N)CCCCNC(=O)CCCCCCCCCCCCCCCCC(=O)O)NC(=O)[C@H](CCC(=O)O)NC(=O)[C@H](CC(C)C)NC(=O)[C@H](Cc1ccc(O)cc1)NC(=O)[C@H](CCCCNC(=O)COCCOCCNC(=O)COCCOCCNC(=O)COCCOCCNC(=O)COCCOCCNC(=O)COCCOCCNC(=O)[C@@H](N)CCCCNC(=O)[C@@H](N)CCCCNC(=O)CCCCCCCCCCCCCCCCC(=O)O)NC(=O)[C@H](CO)NC(=O)[C@@H](NC(=O)[C@H](CC(=O)O)NC(=O)[C@H](CO)NC(=O)[C@@H](NC(=O)[C@H](Cc1ccccc1)NC(=O)[C@@H](NC(=O)CNC(=O)[C@H](CCC(=O)O)NC(=O)C(C)(C)NC(=O)[C@@H](N)Cc1c[nH]cn1)[C@@H](C)O)[C@@H](C)O)C(C)C)C(=O)N[C@@H](CCCCNC(=O)COCCOCCNC(=O)COCCOCCNC(=O)COCCOCCNC(=O)COCCOCCNC(=O)COCCOCCNC(=O)[C@@H](N)CCCCNC(=O)[C@@H](N)CCCCNC(=O)CCCCCCCCCCCCCCCCC(=O)O)C(=O)N[C@@H](Cc1c[nH]c2ccccc12)C(=O)N[C@@H](CC(C)C)C(=O)N[C@H](C(=O)N[C@@H](CCCNC(=N)N)C(=O)NCC(=O)N[C@@H](CCCNC(=N)N)C(=O)NCC(=O)O)C(C)C` [Example 16] registered a Low HSA IC50 of 0.4 nM. Moreover, the EC50 on human GLP-1 receptor [3] was found to be 0.014 nM.
`CC[C@H](C)[C@H](NC(=O)[C@H](Cc1ccccc1)NC(=O)[C@H](CCC(=O)O)NC(=O)[C@H](CCCNC(=N)N)NC(=O)[C@H](C)NC(=O)[C@H](C)NC(=O)[C@H](CCC(N)=O)NC(=O)[C@H](CCCCNC(=O)COCCOCCNC(=O)COCCOCCNC(=O)[C@@H](N)CCCCNC(=O)[C@@H](N)CCCCNC(=O)CCCCCCCCCCCCCCCS(=O)(=O)O)NC(=O)[C@H](CCC(=O)O)NC(=O)[C@H](CC(C)C)NC(=O)[C@H](Cc1ccc(O)cc1)NC(=O)[C@H](CCCCNC(=O)COCCOCCNC(=O)COCCOCCNC(=O)[C@@H](N)CCCCNC(=O)[C@@H](N)CCCCNC(=O)CCCCCCCCCCCCCCCS(=O)(=O)O)NC(=O)[C@H](CO)NC(=O)[C@@H](NC(=O)[C@H](CC(=O)O)NC(=O)[C@H](CO)NC(=O)[C@@H](NC(=O)[C@H](Cc1ccccc1)NC(=O)[C@@H](NC(=O)CNC(=O)[C@H](CCC(=O)O)NC(=O)C(C)(C)NC(=O)[C@@H](N)Cc1c[nH]cn1)[C@@H](C)O)[C@@H](C)O)C(C)C)C(=O)N[C@@H](CCCCNC(=O)COCCOCCNC(=O)COCCOCCNC(=O)[C@@H](N)CCCCNC(=O)[C@@H](N)CCCCNC(=O)CCCCCCCCCCCCCCCS(=O)(=O)O)C(=O)N[C@@H](Cc1c[nH]c2ccccc12)C(=O)N[C@@H](CC(C)C)C(=O)N[C@H](C(=O)N[C@@H](CCCNC(=N)N)C(=O)NCC(=O)N[C@@H](CCCNC(=N)N)C(=O)NCC(=O)O)C(C)C` [Example 14]: the half-life in the data set “in vivo” is 140 h. At human GLP-1 receptor [2] (high serum albumin (2.0% HSA final assay concentration)), this molecule registered a half-inhibitory concentration (IC50) of 100 nM. This molecule also displayed an EC50 on human GLP-1 receptor [3] of 0.018 nM.
